Experimental data published in ChEMBL document CHEMBL5653598, “In vivo antitumor activity of NVP-AEW541-A novel, potent, and selective inhibitor of the IGF-IR kinase” (Cancer Cell, 2004).
The source made the active and inactive calls. The rule behind the calls is not given here.

Key:
[1] = target: Tyrosine-protein kinase ABL1 (Homo sapiens, UniProt P00519); experiment: Inhibition of GST tagged c-Abl (unknown origin) expressed in baculovirus infected Sf9 cells at pH 7.5 measured after 10 mins in presence of gamma-[33P]-ATP by scintillation counter analysis
NWT-21 [2] = details: Mus musculus, dose 50.0 mg/kg, route po, time 1.0 hrs
NWT-21 [3] = experiment: Antitumor activity against mouse NWT-21 cells xenografted in Hsd athymic nude mouse assessed as inhibition of tumor growth at 20 mg/kg, po bid administered for 7 weeks relative to control; format: functional; details: NWT-21, po, 1176 h
Insulin receptor [4] = target: T1, Insulin receptor (Homo sapiens, UniProt P06213); experiment: Inhibition of Ins-R in A14 [Human melanoma] cells assessed as inhibition of autophosphorylation of Ins-R incubated for 90 mins followed by insulin stimulation measured after 10 mins by ELISA analysis; format: cell-based
NWT-21 [5] = experiment: Antitumor activity against mouse NWT-21 cells xenografted in Hsd athymic nude mouse assessed as plasma glucose level at 50 mg/kg, po bid measured after 1 day; format: functional
NWT-21 [6] = experiment: Antitumor activity against mouse NWT-21 cells xenografted in Hsd athymic nude mouse assessed as plasma insulin level at 50 mg/kg, po bid measured after 10 day; format: functional
[7] = target: T2, Mast/stem cell growth factor receptor Kit (Homo sapiens, UniProt P10721); experiment: Inhibition of c-Kit (unknown origin) in human GIST882 cells assessed as inhibition of autophosphorylation of c-Kit incubated for 90 mins in presence of anti-CD117 antibody by ELISA analysis; format: cell-based
[8] = target: Vascular endothelial growth factor receptor 2 (Homo sapiens, UniProt P35968); experiment: Inhibition of GST tagged KDR (unknown origin) expressed in baculovirus at pH 7.6 measured after 10 to 30 mins in presence of gamma-[33P]-ATP by scintillation counter analysis
NWT-21 [9] = details: Mus musculus, dose 50.0 mg/kg, route po, time 1.0 hrs; remark: listed apart in the source
[10] = target: Vascular endothelial growth factor receptor 1 (Homo sapiens, UniProt P17948); experiment: Inhibition of GST tagged Flt-1 (unknown origin) expressed in baculovirus at pH 7.6 measured after 10 to 30 mins in presence of gamma-[33P]-ATP by scintillation counter analysis
[11] = Inhibition of starfish Cdk1/cycB expressed in baculovirus at pH 8.0 measured after 30 mins in presence of gamma-[33P]-ATP by scintillation counter analysis; parameters: species or system Asteroidea
[12] = target: Proto-oncogene tyrosine-protein kinase Src (Gallus gallus, UniProt P00523); experiment: Inhibition of GST tagged chicken c-Src expressed in baculovirus at pH 7.5 measured after 10 mins in presence of gamma-[33P]-ATP by scintillation counter analysis
[13] = target: Platelet-derived growth factor receptor beta (Homo sapiens, UniProt P09619); experiment: Inhibition of GST tagged PDGFR-beta (unknown origin) expressed in baculovirus at pH 7.6 measured after 10 to 30 mins in presence of gamma-[33P]-ATP by scintillation counter analysis
[14] = target: RAF proto-oncogene serine/threonine-protein kinase (Homo sapiens, UniProt P04049); experiment: Inhibition of GST-tagged c-Raf-1 (unknown origin) expressed in baculovirus infected in Sf21 cells at pH 7.5 measured after 30 mins in presence of gamma-[33P]-ATP by scintillation counter analysis
NWT-21 [15] = details: Mus musculus, dose 50.0 mg/kg, route po, time 1.0 hrs; remark: listed apart in the source
Mus musculus [16] = species on record: Mus musculus; details: Harlan, dose 50.0 mg/kg, route po, time 1.0 hrs
[17] = target: Vascular endothelial growth factor receptor 3 (Homo sapiens, UniProt P35916); experiment: Inhibition of GST tagged human Flt-4 expressed in baculovirus at pH 7.6 measured after 15 mins in presence of gamma-[33P]-ATP by scintillation counter analysis
NWT-21 [18] = experiment: Antitumor activity against mouse NWT-21 cells xenografted in Hsd athymic nude mouse assessed as inhibition of tumor growth at 50 mg/kg, po bid administered for 7 weeks relative to control; format: functional; details: NWT-21, 1176 h
NWT-21 [19] = experiment: Antitumor activity against mouse NWT-21 cells xenografted in Hsd athymic nude mouse assessed as plasma glucose level at 50 mg/kg, po bid measured after 10 days; format: functional; details: time 10 day
[20] = target: Fibroblast growth factor receptor 1 (Homo sapiens, UniProt P11362); experiment: Inhibition of GST tagged FGFR-1 (unknown origin) expressed in baculovirus at pH 7.6 measured after 10 to 30 mins in presence of gamma-[33P]-ATP by scintillation counter analysis
NWT-21 [21] = details: Mus musculus, dose 50.0 mg/kg, route po, time 1.0 hrs; remark: listed apart in the source
[22] = target: Receptor tyrosine-protein kinase erbB-4 (Homo sapiens, UniProt Q15303); experiment: Inhibition of GST tagged human HER-4 expressed in baculovirus at pH 7.5 measured after 15 mins in presence of gamma-[33P]-ATP by scintillation counter analysis
NWT-21 [23] = experiment: Antitumor activity against mouse NWT-21 cells xenografted in Hsd athymic nude mouse assessed as plasma insulin level at 50 mg/kg, po bid measured after 1 day; format: functional
[24] = Inhibition of PDGFR (unknown origin) in mouse BALB/3T3 clone A31 cells assessed as inhibition of autophosphorylation of PDGFR incubated for 90 mins followed by PDGF BB stimulation measured after 10 mins in presence of anti-PDGF-R Receptor Type A/B antibody by ELISA analysis; format: cell-based; details: Homo sapiens
NWT-21 [25] = experiment: Antitumor activity against mouse NWT-21 cells xenografted in Hsd athymic nude mouse assessed as inhibition of tumor growth at 30 mg/kg, po bid administered for 7 weeks relative to control; format: functional; details: NWT-21, 1176 h, read-out: GI
[26] = Inhibition of rabbit PKA expressed in baculovirus at pH 7.0 measured after 20 mins in presence of gamma-[33P]-ATP by scintillation counter analysis; parameters: species or system Oryctolagus cuniculus
[27] = target: Hepatocyte growth factor receptor (Homo sapiens, UniProt P08581); experiment: Inhibition of GST tagged c-Met (unknown origin) expressed in baculovirus at pH 7.6 measured after 10 to 30 mins in presence of gamma-[33P]-ATP by scintillation counter analysis
Mus musculus [28] = species on record: Mus musculus; details: Harlan, dose 50.0 mg/kg, route po, time 1.0 hrs; remark: listed apart in the source
Mus musculus [29] = species on record: Mus musculus; details: Harlan, dose 50.0 mg/kg, route po, time 1.0 hrs; remark: listed apart in the source
Insulin receptor [30] = target: T1, Insulin receptor; experiment: Inhibition of GST tagged human Ins-R expressed in baculovirus at pH 7.6 measured after 20 mins in presence of gamma-[33P]-ATP by scintillation counter analysis
[31] = target: Receptor tyrosine-protein kinase erbB-2 (Homo sapiens, UniProt P04626); experiment: Inhibition of GST tagged human HER-2 expressed in baculovirus at pH 7.5 measured after 15 mins in presence of gamma-[33P]-ATP by scintillation counter analysis
Angiopoietin-1 receptor = Angiopoietin-1 receptor (Homo sapiens, UniProt Q02763); experiment: Inhibition of GST tagged Tek (unknown origin) expressed in baculovirus at pH 7.6 measured after 10 to 30 mins in presence of gamma-[33P]-ATP by scintillation counter analysis
[32] = Toxicity in Hsd athymic nude mouse xenografted with NWT-21 cells assessed as body weight at 20 to 50 mg/kg, po bid administered for 7 weeks; format: organism-based; details: in vivo, 1176 h, dose 20-50 mg/kg
[33] = target: T3, Epidermal growth factor receptor (Homo sapiens, UniProt P00533); experiment: Inhibition of GST tagged human HER-1 expressed in baculovirus at pH 7.5 measured after 15 mins in presence of gamma-[33P]-ATP by scintillation counter analysis
[34] = target: RAC-alpha serine/threonine-protein kinase (Homo sapiens, UniProt P31749); experiment: Inhibition of human PKB expressed in baculovirus at pH 7.2 measured after 30 mins in presence of gamma-[33P]-ATP by scintillation counter analysis
[35] = target: T4, Receptor-type tyrosine-protein kinase FLT3 (Homo sapiens, UniProt P36888); experiment: Inhibition of GST tagged human Flt-3 expressed in baculovirus at pH 7.6 measured after 15 mins in presence of gamma-[33P]-ATP by scintillation counter analysis
T4 sequence (P36888 whole entry): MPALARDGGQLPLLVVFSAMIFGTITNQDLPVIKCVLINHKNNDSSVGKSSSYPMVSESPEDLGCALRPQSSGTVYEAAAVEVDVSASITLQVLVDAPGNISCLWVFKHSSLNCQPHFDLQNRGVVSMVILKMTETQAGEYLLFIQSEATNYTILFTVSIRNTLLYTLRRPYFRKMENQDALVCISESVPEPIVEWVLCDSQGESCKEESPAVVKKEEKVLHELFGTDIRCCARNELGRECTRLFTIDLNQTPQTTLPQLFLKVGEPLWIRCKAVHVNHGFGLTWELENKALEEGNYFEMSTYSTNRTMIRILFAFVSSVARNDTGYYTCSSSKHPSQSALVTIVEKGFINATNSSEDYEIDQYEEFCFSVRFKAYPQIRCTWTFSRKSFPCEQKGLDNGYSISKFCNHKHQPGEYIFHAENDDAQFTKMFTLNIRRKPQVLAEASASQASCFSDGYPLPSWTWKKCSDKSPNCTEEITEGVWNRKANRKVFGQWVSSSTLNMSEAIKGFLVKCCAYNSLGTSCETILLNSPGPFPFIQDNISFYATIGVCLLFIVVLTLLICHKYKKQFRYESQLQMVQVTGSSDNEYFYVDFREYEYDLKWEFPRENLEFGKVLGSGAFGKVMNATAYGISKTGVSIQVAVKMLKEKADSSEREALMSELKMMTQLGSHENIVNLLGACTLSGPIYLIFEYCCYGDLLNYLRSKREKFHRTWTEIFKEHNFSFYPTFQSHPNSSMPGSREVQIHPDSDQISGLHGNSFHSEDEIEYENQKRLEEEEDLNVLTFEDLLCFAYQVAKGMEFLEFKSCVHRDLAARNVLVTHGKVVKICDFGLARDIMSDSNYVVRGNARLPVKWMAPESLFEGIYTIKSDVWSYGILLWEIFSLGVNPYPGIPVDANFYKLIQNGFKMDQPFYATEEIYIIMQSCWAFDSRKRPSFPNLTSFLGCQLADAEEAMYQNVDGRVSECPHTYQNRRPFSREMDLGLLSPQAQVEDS

[36] = target: T2, Mast/stem cell growth factor receptor Kit; experiment: Inhibition of GST tagged c-Kit (unknown origin) expressed in baculovirus at pH 7.6 measured after 10 to 30 mins in presence of gamma-[33P]-ATP by scintillation counter analysis
[37] = target: T3, Epidermal growth factor receptor; experiment: Inhibition of HER-1 in human A-431 cells assessed as inhibition of autophosphorylation of HER-1 incubated for 90 mins followed by EGF stimulation measured after 10 mins in presence of anti-EGFR Ab5 by ELISA analysis; format: cell-based

T3 sequence (P00533 whole entry): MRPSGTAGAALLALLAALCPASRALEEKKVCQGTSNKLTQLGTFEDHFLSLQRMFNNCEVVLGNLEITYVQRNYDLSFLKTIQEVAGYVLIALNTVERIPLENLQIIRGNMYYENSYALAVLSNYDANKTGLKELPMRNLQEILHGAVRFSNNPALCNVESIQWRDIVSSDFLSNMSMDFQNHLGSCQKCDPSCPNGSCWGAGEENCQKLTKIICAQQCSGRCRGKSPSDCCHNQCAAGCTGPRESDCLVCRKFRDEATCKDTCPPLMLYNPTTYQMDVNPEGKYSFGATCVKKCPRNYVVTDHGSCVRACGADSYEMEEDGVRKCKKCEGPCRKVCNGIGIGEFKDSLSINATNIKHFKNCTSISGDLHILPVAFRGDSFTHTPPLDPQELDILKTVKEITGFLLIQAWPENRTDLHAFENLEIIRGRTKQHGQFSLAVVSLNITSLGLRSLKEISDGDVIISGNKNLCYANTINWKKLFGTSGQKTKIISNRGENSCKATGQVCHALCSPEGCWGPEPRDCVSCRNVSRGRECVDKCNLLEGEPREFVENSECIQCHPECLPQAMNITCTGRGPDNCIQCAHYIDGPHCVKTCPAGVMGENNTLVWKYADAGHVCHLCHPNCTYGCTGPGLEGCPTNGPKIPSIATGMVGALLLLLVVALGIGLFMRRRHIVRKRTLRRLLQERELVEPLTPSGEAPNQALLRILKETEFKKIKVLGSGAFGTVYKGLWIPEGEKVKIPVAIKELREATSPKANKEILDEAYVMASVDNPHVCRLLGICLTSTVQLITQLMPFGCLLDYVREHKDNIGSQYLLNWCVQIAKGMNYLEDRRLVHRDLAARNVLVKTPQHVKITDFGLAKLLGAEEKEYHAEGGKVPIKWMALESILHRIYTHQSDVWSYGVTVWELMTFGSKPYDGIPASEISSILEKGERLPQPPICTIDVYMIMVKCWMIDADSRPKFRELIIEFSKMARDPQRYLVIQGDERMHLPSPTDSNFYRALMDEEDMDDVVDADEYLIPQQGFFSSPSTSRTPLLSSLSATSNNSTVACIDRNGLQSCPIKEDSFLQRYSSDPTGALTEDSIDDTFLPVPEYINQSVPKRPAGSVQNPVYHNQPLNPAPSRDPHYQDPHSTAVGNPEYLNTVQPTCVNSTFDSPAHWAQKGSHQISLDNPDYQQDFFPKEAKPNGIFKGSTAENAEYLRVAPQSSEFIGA
T2 sequence (P10721 whole entry): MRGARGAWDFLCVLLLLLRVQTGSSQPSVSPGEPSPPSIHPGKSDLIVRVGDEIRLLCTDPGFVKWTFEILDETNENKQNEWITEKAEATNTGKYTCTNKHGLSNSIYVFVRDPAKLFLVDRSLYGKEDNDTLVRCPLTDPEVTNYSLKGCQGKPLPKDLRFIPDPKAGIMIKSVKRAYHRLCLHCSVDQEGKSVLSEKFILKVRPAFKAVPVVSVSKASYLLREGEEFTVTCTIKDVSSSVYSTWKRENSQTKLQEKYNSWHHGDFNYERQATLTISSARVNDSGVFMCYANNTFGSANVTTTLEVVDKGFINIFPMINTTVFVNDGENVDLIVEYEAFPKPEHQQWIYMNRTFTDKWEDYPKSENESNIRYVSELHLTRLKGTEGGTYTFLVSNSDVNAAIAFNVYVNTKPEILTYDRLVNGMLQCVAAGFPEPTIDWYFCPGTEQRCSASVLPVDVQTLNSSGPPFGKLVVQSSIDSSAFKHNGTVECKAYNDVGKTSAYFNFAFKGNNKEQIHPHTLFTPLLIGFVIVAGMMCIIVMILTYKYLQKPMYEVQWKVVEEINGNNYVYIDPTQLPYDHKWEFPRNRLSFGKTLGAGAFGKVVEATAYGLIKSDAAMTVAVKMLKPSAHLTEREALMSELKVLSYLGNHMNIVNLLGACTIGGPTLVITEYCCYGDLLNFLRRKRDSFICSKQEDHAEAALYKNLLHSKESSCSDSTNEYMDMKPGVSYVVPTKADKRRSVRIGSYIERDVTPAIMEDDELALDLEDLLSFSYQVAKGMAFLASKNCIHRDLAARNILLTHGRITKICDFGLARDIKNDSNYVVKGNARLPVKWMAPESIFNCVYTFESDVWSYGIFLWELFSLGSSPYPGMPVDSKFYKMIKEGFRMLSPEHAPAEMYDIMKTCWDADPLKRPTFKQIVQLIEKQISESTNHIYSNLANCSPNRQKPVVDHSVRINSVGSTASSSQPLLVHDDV
T1 sequence (P06213 28-758 limits assumed): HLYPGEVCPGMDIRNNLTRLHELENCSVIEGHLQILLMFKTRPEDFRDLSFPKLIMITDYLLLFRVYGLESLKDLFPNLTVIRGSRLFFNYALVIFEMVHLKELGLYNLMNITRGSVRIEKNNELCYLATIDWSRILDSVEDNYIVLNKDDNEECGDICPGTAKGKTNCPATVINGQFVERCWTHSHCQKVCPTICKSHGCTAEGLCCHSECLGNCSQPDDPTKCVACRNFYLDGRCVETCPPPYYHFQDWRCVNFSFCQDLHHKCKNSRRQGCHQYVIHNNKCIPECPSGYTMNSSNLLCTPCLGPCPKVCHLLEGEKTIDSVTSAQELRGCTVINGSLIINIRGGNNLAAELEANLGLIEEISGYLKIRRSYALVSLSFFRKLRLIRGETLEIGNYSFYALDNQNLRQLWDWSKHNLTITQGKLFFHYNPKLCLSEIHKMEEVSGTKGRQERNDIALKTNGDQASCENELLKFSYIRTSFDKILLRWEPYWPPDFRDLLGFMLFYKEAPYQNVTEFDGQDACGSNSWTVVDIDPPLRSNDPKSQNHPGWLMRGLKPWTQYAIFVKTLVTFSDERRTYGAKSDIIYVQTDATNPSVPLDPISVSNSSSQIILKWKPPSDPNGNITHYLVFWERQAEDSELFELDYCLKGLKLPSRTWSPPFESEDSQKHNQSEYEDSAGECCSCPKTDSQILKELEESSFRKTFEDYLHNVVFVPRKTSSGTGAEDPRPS
T1 sequence (P06213 763-1382 limits assumed): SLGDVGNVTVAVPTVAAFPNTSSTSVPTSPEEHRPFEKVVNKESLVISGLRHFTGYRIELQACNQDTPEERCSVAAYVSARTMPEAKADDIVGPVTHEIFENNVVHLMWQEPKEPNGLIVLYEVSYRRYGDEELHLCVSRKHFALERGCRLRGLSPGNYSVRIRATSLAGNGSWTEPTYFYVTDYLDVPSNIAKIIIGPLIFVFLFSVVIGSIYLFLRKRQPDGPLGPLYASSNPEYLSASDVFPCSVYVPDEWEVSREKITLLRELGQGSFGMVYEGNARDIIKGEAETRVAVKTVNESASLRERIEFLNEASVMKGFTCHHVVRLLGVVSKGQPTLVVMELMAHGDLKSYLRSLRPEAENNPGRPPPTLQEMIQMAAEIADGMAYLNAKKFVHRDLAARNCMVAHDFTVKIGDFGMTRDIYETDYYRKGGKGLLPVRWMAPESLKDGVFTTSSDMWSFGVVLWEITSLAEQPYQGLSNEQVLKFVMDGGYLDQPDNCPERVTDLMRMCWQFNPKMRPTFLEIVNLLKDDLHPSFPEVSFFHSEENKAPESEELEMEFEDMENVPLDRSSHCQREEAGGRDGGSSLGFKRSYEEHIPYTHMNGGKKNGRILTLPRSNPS
Sequence of Receptor tyrosine-protein kinase erbB-2 (P04626 whole entry): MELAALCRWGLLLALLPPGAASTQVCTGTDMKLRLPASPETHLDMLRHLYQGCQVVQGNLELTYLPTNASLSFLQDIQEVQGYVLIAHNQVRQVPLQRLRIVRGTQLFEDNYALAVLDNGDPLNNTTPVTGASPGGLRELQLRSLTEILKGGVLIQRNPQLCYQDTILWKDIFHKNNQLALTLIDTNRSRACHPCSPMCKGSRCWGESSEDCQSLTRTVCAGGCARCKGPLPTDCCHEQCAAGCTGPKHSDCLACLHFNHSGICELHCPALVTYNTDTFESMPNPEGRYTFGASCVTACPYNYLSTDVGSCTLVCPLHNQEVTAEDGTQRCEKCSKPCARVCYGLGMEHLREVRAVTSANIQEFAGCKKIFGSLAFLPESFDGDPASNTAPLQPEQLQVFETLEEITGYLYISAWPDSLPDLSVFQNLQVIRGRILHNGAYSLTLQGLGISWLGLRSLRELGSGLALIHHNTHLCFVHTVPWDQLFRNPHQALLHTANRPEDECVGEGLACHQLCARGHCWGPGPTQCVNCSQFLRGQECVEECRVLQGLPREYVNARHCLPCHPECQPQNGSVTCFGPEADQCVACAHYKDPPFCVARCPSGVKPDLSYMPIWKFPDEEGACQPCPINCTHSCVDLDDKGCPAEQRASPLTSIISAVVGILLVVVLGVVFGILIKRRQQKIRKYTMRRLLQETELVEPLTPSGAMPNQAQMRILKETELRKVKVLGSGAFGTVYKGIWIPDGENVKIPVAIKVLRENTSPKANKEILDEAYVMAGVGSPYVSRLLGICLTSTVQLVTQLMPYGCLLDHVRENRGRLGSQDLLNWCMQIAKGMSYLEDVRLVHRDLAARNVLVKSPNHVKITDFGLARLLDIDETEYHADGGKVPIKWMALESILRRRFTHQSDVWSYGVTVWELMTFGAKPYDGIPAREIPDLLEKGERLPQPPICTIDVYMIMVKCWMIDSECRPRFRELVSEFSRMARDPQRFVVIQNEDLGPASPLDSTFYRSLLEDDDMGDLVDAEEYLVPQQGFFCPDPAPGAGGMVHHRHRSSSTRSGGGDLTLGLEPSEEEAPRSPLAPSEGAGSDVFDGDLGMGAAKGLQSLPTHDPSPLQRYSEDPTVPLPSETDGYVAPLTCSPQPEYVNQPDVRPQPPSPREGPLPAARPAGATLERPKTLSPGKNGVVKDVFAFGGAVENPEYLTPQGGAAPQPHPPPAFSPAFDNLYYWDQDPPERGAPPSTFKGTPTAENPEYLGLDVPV

SMILES: Nc1ncnc2c1c(-c1cccc(OCc3ccccc3)c1)cn2[C@H]1C[C@@H](CN2CCC2)C1
- IC50 [1]: > 10000 nM
- inhibition (NWT-21 [2]): Active
- T/C at 20 mg/kg (NWT-21 [3]): 32%
- IC50 (Insulin receptor [4]): 2300 nM
- Activity (NWT-21 [5]): 197.4 mg/dL
- Activity (NWT-21 [6]): 28.9 uU/ml
- IC50 [7]: > 5000 nM
- IC50 [8]: 2300 nM
- inhibition (NWT-21 [9]): Active
- IC50 [10]: 600 nM
- IC50 [11]: > 10000 nM
- IC50 [12]: 2400 nM
- IC50 [13]: 2000 nM
- IC50 [14]: > 10000 nM
- inhibition (NWT-21 [15]): Active
- inhibition (Mus musculus [16]): Active
- IC50 [17]: 2400 nM
- T/C at 50 mg/kg (NWT-21 [18]): 14%
- Activity (NWT-21 [19]): 204.4 mg/dL
- IC50 [20]: 4100 nM
- inhibition (NWT-21 [21]): Active
- IC50 [22]: 1400 nM
- Activity (NWT-21 [23]): 14.4 uU/ml
- IC50 [24]: > 10000 nM
- inhibition in vivo at 30 mg/kg (NWT-21 [25]): 28%
- IC50 [26]: > 10000 nM
- IC50 [27]: 3800 nM
- inhibition (Mus musculus [28]): Active
- inhibition (Mus musculus [29]): Active
- IC50 (Insulin receptor [30]): 140 nM
- IC50 [31]: 4100 nM
- IC50 (Angiopoietin-1 receptor): 530 nM
- Activity [32]: Non-Toxic
- IC50 [33]: 5800 nM
- IC50 [34]: > 10000 nM
- IC50 [35]: 420 nM
- IC50 [36]: 3300 nM
- IC50 [37]: > 10000 nM
